# Measurements reported in patent publication US20230036854A1, “HETEROCYCLIC SPIRO-COMPOUNDS AS AM2 RECEPTOR INHIBITORS” (THE UNIVERSITY OF SHEFFIELD, priority 2018, published 2023).
# Molecular target: T1, AM2 receptor (1321N1 cells transfected with CALCRL+RAMP3) (Homo sapiens, UniProt O60896+Q16602)
# T1 construct: host or cells: 1321N1 cells
# Assay: AM2 receptor inhibition, LANCE cAMP agonist-antagonist competition assay
# Type: cell-based
# Details: inhibition of AM induced cAMP activation, read-out: AM2 D2 protocol: pIC50 (converted)
# Description: Compounds were assessed for their ability to inhibit ligand-induced elevations of cAMP, using the Perkin Elmer LANCE cAMP assay using commercially-available cells expressing a specific receptor of interest using the following general procedure:
# Compounds were prepared in dimethyl sulfoxide (DMSO—99.9% pure) (Sigma Aldrich, Cat #: D4540) added to powder stocks to produce a 20 mM solution (100% DMSO) that was sonicated at 37° C. for 10 minutes to fully dissolve the compounds. The 20 mM stocks were diluted further in DMSO to produce a 2 mM solution that was sonicated at 37° C. for 10 minutes. 2 mM stocks were dissolved in assay/stimulation buffer to produce a 400 μM solution that was sonicated at 37° C. for 10 minutes for all cAMP assays. All stocks were stored at −20° C. Then serial dilution (Dilution factor: 10) was performed to achieve the desire experimental concentrations.
# Competition assays were performed according to the manufactures instructions using LANCE® TR-FRET cAMP assay kit (Perkin Elmer, Cat #: AD0264). Serial dilutions (3 μl/well) of the molecules were plated in a 384-well OptiPlate (Perkin Elmer, Cat #: 6007299) in duplicates. Appropriate controls (100% stimulation: Forskolin and 0% stimulation: Vehicle control) (6 μl/well) were included in each plate for data normalization. Following the compound addition, 6 μl of G-protein coupled receptor overexpressing cells/Alexa Fluor antibody solution (1:100 dilution) was added in each well at a desired density of 2500cells/well. The overexpressing cell lines were purchased from DiscoveRx, Birmingham, UK. After spinning the plate at 1000 rpm for 1 minute and vortexing briefly, the cells were pre-incubated with the compounds for 30 minutes at room temperature (covered). Then 3 μl of the equivalent peptide ligand (EC50 dose) was added to all the wells except vehicle and forskolin controls. The plate were then spun down at 1000 rpm for 1 minute and once finished they were vortexed briefly and covered. Cells were stimulated in the presence of the ligands for 15 minutes at room temperature. After stimulation 12 μl of detection mix (Europium-Chelate streptavidin/biotinylated cAMP tracer solution) was added to all wells and incubated for 60 minutes at room temperature. The plate was then read on the Enspire multimode Plate reader (Perkin Elmer), at; 320/340 nm excitation and 615/665 nm emission was recorded.
# Assay/Stimulation Buffer (30 mL)—pH 7.4 • 28 mL Hank's Balanced salt solution (+MgCl2, +CaCl2)—(Thermo Fisher Cat #:14170112) • 150 μl HEPES (1M)—(Thermo Fisher Cat #:15630080) • 400 μl Stabilizer (DTPA) Purified BSA (7.5%)—(Perkin Elmer, Cat #: CR84-100)
# The ability of a compound to inhibit the AM induced cAMP activation in AM2 receptor-expressing cells (1321N1 cells transfected with CALCRL+RAMP3, sourced from DiscoverX catalogue number 95-0169C6) was assessed using the protocol above.
# T1 sequence (Q16602 23-461): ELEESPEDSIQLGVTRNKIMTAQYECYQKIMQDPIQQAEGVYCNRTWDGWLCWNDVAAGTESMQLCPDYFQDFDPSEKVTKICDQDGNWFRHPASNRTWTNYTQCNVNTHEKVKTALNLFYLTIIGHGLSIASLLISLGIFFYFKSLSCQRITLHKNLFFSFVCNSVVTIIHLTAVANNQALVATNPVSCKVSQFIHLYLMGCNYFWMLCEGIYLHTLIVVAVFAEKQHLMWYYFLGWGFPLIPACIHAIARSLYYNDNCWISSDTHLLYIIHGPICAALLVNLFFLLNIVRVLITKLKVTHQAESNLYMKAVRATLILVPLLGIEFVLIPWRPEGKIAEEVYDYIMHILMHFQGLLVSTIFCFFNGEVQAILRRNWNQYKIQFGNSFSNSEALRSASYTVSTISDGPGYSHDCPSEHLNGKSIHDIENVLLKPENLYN
# T1 sequence (O60896 24-148): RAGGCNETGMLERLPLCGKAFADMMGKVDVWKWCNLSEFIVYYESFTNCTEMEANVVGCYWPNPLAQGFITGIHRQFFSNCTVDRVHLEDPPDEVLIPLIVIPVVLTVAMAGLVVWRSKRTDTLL
row,Compound,IC50 [nM]
1,"CNCc1ccccc1CN(CC(=O)Nc1ccc2c(c1)C[C@@]1(C2)C(=O)Nc2ncccc21)C(=O)C1(CC(F)(F)F)CCN(C(C)=O)CC1 [Example 120, (R)-1-Acetyl-N-(2-((methylamino)methyl)benzyl)-N-(2-oxo-2-((2′-oxo-1,1′,2′,3-tetrahydrospiro[indene-2,3′-pyrrolo[2,3-b]pyridin]-5-yl)amino)ethyl)-4-(2,2,2-trifluoroethyl)piperidine-4-carboxamide]",22.9
2,"CCC1(C(=O)N(CC(=O)Nc2ccc3c(c2)C[C@@]2(C3)C(=O)Nc3ncccc32)Cc2ccccc2CNC)CCN(C(C)=O)CC1 [Example 68, (R)-1-Acetyl-4-ethyl-N-(2-((methylamino)methyl)benzyl)-N-(2-oxo-2-((2′-oxo-1,1′,2′,3-tetrahydrospiro[indene-2,3′-pyrrolo[2,3-b]pyridin]-5-yl)amino)ethyl)piperidine-4-carboxamide]",1.41
3,"CNCc1ccc(F)cc1CN(CC(=O)Nc1ccc2c(c1)C[C@@]1(C2)C(=O)Nc2ncccc21)C(=O)C1(C)CCNCC1 [Example 135, (R)—N-(5-Fluoro-2-((methylamino)methyl)benzyl)-4-methyl-N-(2-oxo-2-((2′-oxo-1,1′,2′,3-tetrahydrospiro[indene-2,3′-pyrrolo[2,3-b]pyridin]-5-yl)amino)ethyl)piperidine-4-carboxamide]",55
4,"CNCc1ccccc1CN(CC(=O)Nc1ccc2c(c1)CC1(C2)C(=O)Nc2ncccc21)C(=O)C1(C)CCNCC1 (stereo not shown) [Example 2, 4-Methyl-N-(2-((methylamino)methyl)benzyl)-N-(2-oxo-2-((2′-oxo-1,1′,2′,3-tetrahydrospiro[indene-2,3′-pyrrolo[2,3-b]pyridin]-5-yl)amino)ethyl)piperidine-4-carboxamide bis(2,2,2-trifluoroacetate)]",3.39
5,"CCC1(C(=O)N(CC(=O)Nc2ccc3c(c2)C[C@@]2(C3)C(=O)Nc3ncccc32)Cc2ccccc2CNC)CCN(C(=O)N2CC(F)C2)CC1 [Example 111, (R)-4-Ethyl-1-(3-fluoroazetidine-1-carbonyl)-N-(2-((methylamino)methyl)benzyl)-N-(2-oxo-2-((2′-oxo-1,1′,2′,3-tetrahydrospiro[indene-2,3′-pyrrolo[2,3-b]pyridin]-5-yl)amino)ethyl)piperidine-4-carboxamide]",15.5
6,"CNCc1ccccc1CN(CC(=O)Nc1ccc2c(c1)C[C@@]1(C2)C(=O)Nc2ncccc21)C(=O)C1(C)CCN(C(=O)CC2CCNCC2)CC1 [Example 7, (R)-4-Methyl-N-(2-((methylamino)methyl)benzyl)-N-(2-oxo-2-((2′-oxo-1,1′,2′,3-tetrahydrospiro[indene-2,3′-pyrrolo[2,3-b]pyridin]-5-yl)amino)ethyl)-1-(2-(piperidin-4-yl)acetyl)piperidine-4-carboxamide]",4.07
7,"CNCc1ccccc1CN(CC(=O)Nc1ccc2c(c1)C[C@@]1(C2)C(=O)Nc2ncccc21)C(=O)C1(C)CCN(C(=O)N2CCCC2)CC1 [Example 57, (R)-4-Methyl-N-(2-((methylamino)methyl)benzyl)-N-(2-oxo-2-((2′-oxo-1,1′,2′,3-tetrahydrospiro[indene-2,3′-pyrrolo[2,3-b]pyridin]-5-yl)amino)ethyl)-1-(pyrrolidine-1-carbonyl)piperidine-4-carboxamide]",3.63
8,"CCC1(C(=O)N(CC(=O)Nc2ccc3c(c2)C[C@@]2(C3)C(=O)Nc3ncccc32)Cc2ccccc2CNC)CCN(C(=O)C(C)C)CC1 [Example 73, (R)-4-Ethyl-1-isobutyryl-N-(2-((methylamino)methyl)benzyl)-N-(2-oxo-2-((2′-oxo-1,1′,2′,3-tetrahydrospiro[indene-2,3′-pyrrolo[2,3-b]pyridin]-5-yl)amino)ethyl)piperidine-4-carboxamide]",14.1
9,"CCC1(C(=O)N(CC(=O)Nc2ccc3c(c2)C[C@@]2(C3)C(=O)Nc3ncccc32)Cc2ccccc2CNC)CCN(C(=O)NC(C)C)CC1 [Example 101, (R)-4-Ethyl-N1-isopropyl-N4-(2-((methylamino)methyl)benzyl)-N4-(2-oxo-2-((2′-oxo-1,1′,2′,3-tetrahydrospiro[indene-2,3′-pyrrolo[2,3-b]pyridin]-5-yl)amino)ethyl)piperidine-1,4-dicarboxamide]",1.41
10,"CNCc1ccccc1CN(CC(=O)Nc1ccc2c(c1)CC1(C2)C(=O)Nc2ncccc21)C(=O)C1(C)CCN(CC(F)(F)F)CC1 (stereo not shown) [Example 38, 4-Methyl-N-(2-((methylamino)methyl)benzyl)-N-(2-oxo-2-((2′-oxo-1,1′,2′,3-tetrahydrospiro[indene-2,3′-pyrrolo[2,3-b]pyridin]-5-yl)amino)ethyl)-1-(2,2,2-trifluoroethyl)piperidine-4-carboxamide]",10.5

# Further lines, results first:
row,IC50 [nM],Compound
1,3.8,"CNCc1ccccc1CN(CC(=O)Nc1ccc2c(c1)C[C@@]1(C2)C(=O)Nc2ncccc21)C(=O)C1(C)CCN(C(=O)c2ccc(C(=O)O)cc2)CC1 [Example 35, (R)-4-(4-Methyl-4-((2-((methylamino)methyl)benzyl)(2-oxo-2-((2′-oxo-1,1′,2′,3-tetrahydrospiro[indene-2,3′-pyrrolo[2,3-b]pyridin]-5-yl)amino)ethyl)carbamoyl)piperidine-1-carbonyl)benzoic Acid]"
2,4.27,"CNCc1ccccc1CN(CC(=O)Nc1ccc2c(c1)CC1(C2)C(=O)Nc2ncccc21)C(=O)C1(C)CCN(C(=O)C2CC2)CC1 (stereo not shown) [Example 20, 1-(Cyclopropanecarbonyl)-4-methyl-N-(2-((methylamino)methyl)benzyl)-N-(2-oxo-2-((2′-oxo-1,1′,2′,3-tetrahydrospiro[indene-2,3′-pyrrolo[2,3-b]pyridin]-5-yl)amino)ethyl)piperidine-4-carboxamide]"
3,0.759,"CNCc1ccccc1CN(CC(=O)Nc1ccc2c(c1)CC1(C2)C(=O)Nc2ncccc21)C(=O)C1(C)CCN(C(=O)c2ccccn2)CC1 (stereo not shown) [Example 15, 4-Methyl-N-(2-((methylamino)methyl)benzyl)-N-(2-oxo-2-((2′-oxo-1,1′,2′,3-tetrahydrospiro[indene-2,3′-pyrrolo[2,3-b]pyridin]-5-yl)amino)ethyl)-1-picolinoylpiperidine-4-carboxamide]"
4,4.47,"CNCc1ccccc1CN(CC(=O)Nc1ccc2c(c1)C[C@@]1(C2)C(=O)Nc2ncccc21)C(=O)C1(C)CCN(C(=O)c2cnccn2)CC1 [Example 19, (R)-4-Methyl-N-(2-((methylamino)methyl)benzyl)-N-(2-oxo-2-((2′-oxo-1,1′,2′,3-tetrahydrospiro[indene-2,3′-pyrrolo[2,3-b]pyridin]-5-yl)amino)ethyl)-1-(pyrazine-2-carbonyl)piperidine-4-carboxamide]"
5,77.6,CNCc1ccccc1CN(CC(=O)Nc1ccc2c(c1)C[C@@]1(C2)C(=O)Nc2ncccc21)C(=O)C1(C)CCN(c2ccccn2)CC1 [Example 62]
6,2.57,"CNCc1ccccc1CN(CC(=O)Nc1ccc2c(c1)CC1(C2)C(=O)Nc2ncccc21)C(=O)C1(C)CCN(C(C)=O)CC1 (stereo not shown) [Example 1, 1-Acetyl-4-methyl-N-(2-((methylamino)methyl)benzyl)-N-(2-oxo-2-((2′-oxo-1,1′,2′,3-tetrahydrospiro[indene-2,3′-pyrrolo[2,3-b]pyridin]-5-yl)amino)ethyl)piperidine-4-carboxamide 2,2,2-trifluoroacetate]"
